According to US11492338B2, “Furan surfactant compositions and methods” (SIRONIX RENEWABLES, INC., priority 2020, dated 2022):
In brackets after ≈: the same amount, converted by molar mass. Like-named read-outs stand apart in the source and are kept apart here. Marks after values point to notes of the source that are not given here.

Columns and labels:
[1] = Critical micelle concentration (CMC); assay type: physicochemical
[2] = Surface tension at critical micelle concentration; assay type: physicochemical
[3] = Calcium tolerance (Ca^2+ from CaCl2 until sustained precipitate); assay type: physicochemical; details: ppm of Ca^2+ from CaCl2 where sustained precipitate is noted; for Calcium Tolerance: Table 2; for Ca^2+ Tolerance: Table 3
Experimental: (§1) Synthesized surfactants including the structure depicted in Experimental Structure 1, as well as the corresponding Na, Li, NH4, and Mg surfactants, were tested to determine surfactant properties. These included the time required for the surfactant solution to wet cotton fabric, the amount of foam the surfactant generates when agitated, the tolerance of the surfactant to calcium ions in solution as a measure of surfactant performance in hard water, and the temperature below which the surfactant forms a solid precipitate, known as the Krafft Point.

[4] = Solubility in deionized water at 20° C.; assay type: physicochemical
Krafft point = assay type: physicochemical
Experimental: as §1

[5] = Stability tracking of oleo-furan sulfonic acid by liquid chromatography; assay type: physicochemical; details: 8-week time course, room temperature and elevated temperature (42° C.)
Excerpt: Another advantage of surfactant embodiments disclosed herein is their inherent stability, particularly in the acid form prior to neutralization (oleo-furan sulfonic acids). As noted elsewhere herein, structural stability is an issue in the production of the common anionic surfactant SLES, causing occasional ring closure of the labile ethoxy chain during ethoxylation and sulfation step, which leads to the formation of a carcinogenic byproduct (e.g., 1,4-dioxane).
The calcium and magnesium monoanionic surfactants were both observed to have high foaming and foam stability, which is attractive for a number of applications including home cleaning, personal care, detergents, cosmetics, ore floatation and oil recovery. […] Stability of the oleo-furan surfactant, specifically the acid form oleo-furan sulfonic acid that is a precursor to the calcium and other cation surfactants, was measured over an eight week time course at room temperature and elevated temperatures, the results of which can be seen in FIG. 1.

[6] = water; common sodium surfactants; cited from earlier work

Compound	CMC (critical micelle concentration) ([1]; Table 2)	Surface Tension at critical micelle concentration ([2]; Table 2)	Calcium Tolerance [3]	Krafft Point (Krafft point; Table 2)	Solubility ([4]; Table 2)	also measured
CCCCCCCCCCCC(=O)c1cc(S(=O)(=O)O)c(C)o1 [Ca^2+]	300 ppm	33 mN/m	>50,000 ppm	<0 °C		Solubility ([4]; Table 2, read-out: Solubility): 350 mg/mL (≈ 1020 mM)
CCCCCCCCCCCC(=O)c1cc(S(=O)(=O)[O-])c(C)o1.CCCCCCCCCCCC(=O)c1cc(S(=O)(=O)[O-])c(C)o1.[Mg+2] [Mg^2+]			>50,000 ppm	20 °C	10 mg/mL	Surface Tension ([2]; Table 2, recorded for saturated surfactant solution at 20° C.): 38* mN/m
CCCCCCCCCCCC(=O)c1ccc(S(=O)(=O)[O-])o1.[Na+] [Na^+ OFS-12-1/0]						CMC (critical micelle concentration) ([1]; Table 3): 1735 ppm; Surface Tension at critical micelle concentration ([2]; Table 3): 44 mN/m; Ca^2+ Tolerance [3]: >50,000 ppm; Krafft Point (Krafft point; Table 3): <0 °C
CCCCCCCCCCCC(=O)c1cc(S(=O)(=O)[O-])c(C)o1.[Na+] [Na^+]	1480 ppm	42 mN/m	>50,000 ppm	<0 °C		CMC (critical micelle concentration) ([1]; Table 3): 1480 ppm; Surface Tension at critical micelle concentration ([2]; Table 3): 42 mN/m; Ca^2+ Tolerance [3]: >50,000 ppm; Krafft Point (Krafft point; Table 3): <0 °C
CCCCCCCCCCCC(=O)c1cc(S(=O)(=O)O)c(C)o1 [oleo-furan sulfonic acids]						degradation or byproduct formation by liquid chromatography [5]: negligible degradation or byproduct formation
CCCCCCCCCCCCOCCOCCOCCOS(=O)(=O)[O-].[Na+] [SLES, sodium lauryl ether sulfate, reference compound]	449 ppm	32 mN/m	>50,000 ppm	<0 °C	≥1000 mg/mL	
sodium dodecylbenzene sulfonate						Solubility [6]: 250 mg/mL
CCCCCCCCCCCC(=O)c1cc(S(=O)(=O)O)c(C)o1.N [NH4^+]	3309 ppm	39 mN/m	>50,000 ppm	<0 °C	1000 mg/mL	
CCCCCCCCCCCC(=O)c1cc(S(=O)(=O)[O-])c(C)o1.[Li+] [Li^+]	1347 ppm	45 mN/m	>50,000 ppm	<0 °C	300 mg/mL	
